# Reference: the supplement of paper PMC10307832
# Legend:
# Test in all cases: relative viability (nuclei count vs DMSO), 5 days (fraction); higher = more cells survive
# Dasatinib + Decitabine = compound: Cc1nc(Nc2ncc(C(=O)Nc3c(C)cccc3Cl)s2)cc(N2CCN(CCO)CC2)n1 [Dasatinib] + Nc1ncn([C@H]2C[C@H](O)[C@@H](CO)O2)c(=O)n1 [Decitabine] (partner 2 µM)
# In short: (§1)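 Lung cancer cell lines were pin-tool dosed in 1536-well plates on the day after seeding, with either a lone drug or a fixed anchor-drug dose plus five library-drug doses (not always all listed) in √10 steps. Nuclei were counted on 4× images after 5 days. Relative viability is the ratio of treated-well to vehicle-well nuclei counts, with each value a median of duplicate plates.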
# XMD13-2 + Phenformin = compound: C1CC1C(=O)NC2=NNC3=C2C=CC(=C3)C4=CC(=CC=C4)C(=O)NC5CC5 [XMD13-2] + N=C(N)NC(=N)NCCc1ccccc1 [Phenformin] (partner 250 µM)
# In short: as §1
# ALW-II-49-7 + Bortezomib = compound: Cc1ccc(C(=O)Nc2cccc(C(F)(F)F)c2)cc1Nc1cncc(C(N)=O)c1 [ALW-II-49-7] + CC(C)C[C@H](NC(=O)[C@H](Cc1ccccc1)NC(=O)c1cnccn1)B(O)O [Bortezomib] (partner 0.002 µM)
# In short: as §1
# ALW-II-49-7 + Luminespib = compound: Cc1ccc(C(=O)Nc2cccc(C(F)(F)F)c2)cc1Nc1cncc(C(N)=O)c1 [ALW-II-49-7] + CCNC(=O)c1noc(-c2cc(C(C)C)c(O)cc2O)c1-c1ccc(CN2CCOCC2)cc1 [Luminespib] (partner 0.01 µM)
# In short: as §1
Cell Line,relative viability (Dasatinib + Decitabine; first compound 0.005 µM),relative viability (Dasatinib + Decitabine; first compound 0.01581 µM),relative viability (Dasatinib + Decitabine; first compound 0.05 µM),relative viability (Dasatinib + Decitabine; first compound 0.1581 µM),relative viability (Dasatinib + Decitabine; first compound 0.5 µM),relative viability (XMD13-2 + Phenformin; first compound 0.05 µM),relative viability (XMD13-2 + Phenformin; first compound 0.1581 µM),relative viability (XMD13-2 + Phenformin; first compound 0.5 µM),relative viability (XMD13-2 + Phenformin; first compound 1.581 µM),relative viability (XMD13-2 + Phenformin; first compound 5 µM),relative viability (ALW-II-49-7 + Bortezomib; first compound 0.08 µM),relative viability (ALW-II-49-7 + Bortezomib; first compound 0.253 µM),relative viability (ALW-II-49-7 + Bortezomib; first compound 0.8 µM),relative viability (ALW-II-49-7 + Bortezomib; first compound 2.53 µM),relative viability (ALW-II-49-7 + Bortezomib; first compound 8 µM),relative viability (ALW-II-49-7 + Luminespib; first compound 0.08 µM),relative viability (ALW-II-49-7 + Luminespib; first compound 0.253 µM),relative viability (ALW-II-49-7 + Luminespib; first compound 0.8 µM),relative viability (ALW-II-49-7 + Luminespib; first compound 2.53 µM),relative viability (ALW-II-49-7 + Luminespib; first compound 8 µM)
LCLC-103H,0.69,0.7,0.737,0.625,0.446,0.397,0.357,0.357,0.326,0.343,1.03,0.859,1.1,0.9,0.962,0.852,1.01,1.03,0.854,1.03
LOU-NH91,0.83,0.819,0.743,0.66,0.421,0.83,0.663,0.732,0.582,0.867,0.425,0.529,0.549,0.316,0.489,0.384,0.363,0.321,0.276,0.283
LU99A,0.827,0.819,0.833,0.655,0.46,1.08,0.752,0.833,0.885,0.852,1.29,1.17,1.05,1.07,1.27,0.253,0.212,0.194,0.217,0.288
LXF-289,0.398,0.336,0.31,0.358,0.142,0.538,0.536,0.561,0.551,0.527,0.973,0.965,1.02,1.1,1.04,0.731,0.626,0.825,0.688,0.848
NCI-H23,0.273,0.293,0.286,0.27,0.236,1,0.796,0.802,0.725,0.916,1.12,0.807,1.03,1.12,1.02,0.188,0.22,0.228,–,0.191
NCI-H322M,0.755,0.589,0.518,0.45,0.253,0.858,0.84,0.774,0.782,0.905,1.09,1.36,1.43,1.32,1.26,0.897,0.762,0.965,0.868,0.833
NCI-H441,0.276,0.232,0.272,0.202,0.19,1.06,0.801,0.883,0.884,0.871,0.333,0.559,0.431,0.384,0.208,0.332,0.32,0.313,0.35,0.243
NCI-H460,0.568,0.444,0.352,0.29,0.286,0.589,0.537,0.57,0.486,0.542,0.869,1.04,1.04,0.956,1.05,0.0293,0.0319,0.0397,0.0303,0.0275
NCI-H520,0.524,0.38,0.266,0.177,0.175,0.529,0.604,0.591,0.529,0.499,0.385,0.528,–,0.441,0.709,0.219,0.216,0.232,0.206,0.237
NCI-H596,0.955,0.916,0.724,0.668,0.542,0.768,0.863,0.78,0.913,0.836,0.672,0.99,1.18,1,0.953,0.929,0.943,1.18,1.1,1.12
NCI-H647,0.379,0.311,0.315,0.173,0.182,0.697,0.605,0.678,0.659,0.435,0.858,1.13,0.799,0.725,0.801,0.134,0.206,0.236,0.167,0.154
NCI-H650,0.325,0.281,0.318,0.341,0.302,0.438,0.544,0.534,0.425,0.488,0.649,0.906,0.913,0.88,0.663,0.853,0.972,0.632,0.722,0.526
NCI-H661,0.566,0.528,0.518,0.394,0.404,0.261,0.292,0.274,0.267,0.271,0.865,0.796,0.717,–,0.716,1.04,1.01,0.913,0.976,0.998
NCI-H727,0.818,0.7,0.742,0.718,0.295,0.619,0.518,0.556,0.584,0.525,0.678,1.09,0.67,0.895,0.787,0.419,0.336,0.392,0.367,0.239
NCI-H838,0.45,0.422,0.39,0.377,0.3,0.663,0.538,0.65,0.544,0.632,0.71,0.839,0.721,0.64,1.05,0.233,0.257,0.344,0.272,0.211
NCI-H1355,0.355,0.319,0.354,0.343,0.272,0.5,0.451,0.465,0.462,0.517,0.983,1.26,1.23,1.2,1.08,0.722,0.628,0.658,0.562,0.708
NCI-H1437,0.599,0.576,0.642,0.499,0.49,0.297,0.305,0.299,0.311,0.341,0.597,0.478,–,0.436,0.5,1.13,1.12,1.11,1.08,1.06
NCI-H1650,0.462,0.255,0.475,0.318,0.314,0.634,0.476,0.552,0.432,0.558,0.203,0.218,0.218,0.198,0.206,0.199,0.169,0.209,0.19,0.206
NCI-H1651,0.629,0.507,0.558,0.585,0.473,0.382,0.323,0.392,0.37,0.343,1.06,0.976,1.04,0.933,0.936,0.637,0.802,0.801,0.644,0.876
NCI-H1666,0.725,0.691,0.73,0.656,0.521,0.544,0.6,0.595,0.546,0.593,0.663,0.79,0.87,1.04,0.928,0.951,0.999,1.04,1.12,1
NCI-H1734,0.508,0.48,0.533,0.412,0.321,0.463,0.354,0.391,0.386,0.363,1.07,1.14,0.846,0.823,0.738,0.209,0.177,0.169,0.181,0.186
NCI-H1755,0.682,0.641,0.602,0.509,0.323,0.643,0.666,0.596,0.642,0.677,0.963,1.04,0.963,0.923,0.849,0.341,0.497,0.421,0.283,0.268
NCI-H1792,0.544,0.51,0.469,0.342,0.178,0.29,0.306,0.259,0.324,0.352,0.745,0.878,0.82,0.922,0.95,–,0.383,0.276,0.293,0.349
NCI-H1915,0.291,0.249,0.231,0.224,0.144,0.381,0.362,0.367,0.371,0.379,0.648,1,0.918,0.931,0.67,0.745,0.612,0.679,0.493,0.441
NCI-H1975,0.377,0.384,0.368,0.266,0.224,0.436,0.395,0.407,0.42,0.401,0.274,0.485,0.333,0.338,0.319,0.431,0.165,0.235,0.292,0.198
NCI-H1993,0.503,0.477,0.67,0.456,0.407,0.456,0.493,0.55,0.553,0.566,1.14,1.19,1.01,1.13,1.33,0.701,0.705,0.95,0.793,1.14
NCI-H2009,0.403,0.384,0.314,0.216,0.122,0.473,0.486,0.54,0.454,0.517,1,1.03,0.96,0.783,0.512,1.04,1.02,1.04,0.845,0.728
